Test results as given in patent US20140322252A1, “Peptides for Treating Alzheimers's Disease and Related Conditions” (priority 2013, published 2014).

Columns and labels:
[1] = test system: CCL2 (MCP-1) chemotaxis of human monocytes; test: CCL2-mediated human monocyte chemotaxis (FIG. 1); format: cell-based; conditions: FIG. 1, direct comparison among all RAPs
From the text: Triplicate determinations were made and results are expressed as the mean plus or minus SEM. The experiment shown is a direct comparison among all RAPs. Statistical analysis was by unpaired t-test, with significance set at the p<0.01 (*) level for difference from CCL2 only chemotaxis.

[2] = test system: NBM lesioned aged Sprague-Dawley rats; conditions: bilateral NBM lesions, 1 mg IP daily for 5 months; cited from earlier work
CCR8 = biological target: T1, CCR8 (Homo sapiens, UniProt P51685); format: cell-based; conditions: for inhibition of CCL1 (I-309) mediated chemotaxis / CCR8 function: M2 type monocyte derived macrophages, CCL1 1 nM
T1 construct: required maturation with M-CSF for 48 hrs to up-regulate expression of CCR8; endogenous in cells; host or cells: human monocytes isolated by Ficoll-Percoll gradient, matured with M-CSF for 48 hours (M2-type macrophages)
T1 sequence (P51685 whole entry): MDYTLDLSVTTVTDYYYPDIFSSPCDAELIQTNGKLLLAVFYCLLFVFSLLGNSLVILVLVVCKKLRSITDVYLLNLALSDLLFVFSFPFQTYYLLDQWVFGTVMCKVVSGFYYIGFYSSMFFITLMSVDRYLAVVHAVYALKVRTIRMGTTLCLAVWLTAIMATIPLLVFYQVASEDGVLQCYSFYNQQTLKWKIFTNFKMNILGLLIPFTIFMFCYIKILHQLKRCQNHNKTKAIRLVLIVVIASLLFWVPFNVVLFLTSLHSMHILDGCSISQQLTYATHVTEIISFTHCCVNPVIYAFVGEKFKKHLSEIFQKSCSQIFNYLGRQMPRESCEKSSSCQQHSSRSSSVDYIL
Procedure: Human monocytes isolated by Ficoll-Percoll gradient were cultured in complete growth medium (RPMI1640, supplemented with 10% FBS and 4 mM L-glutamine) in presence of M-CSF for 48 hours. Resting monocytes, as freshly isolated, were not responsive to CCL1, which required maturation with M-CSF for 48 hrs to up-regulate expression of CCR8, so-called “M2” type macrophages. […] The data represent the mean of triplicate determinations of a representative experiment.

LPS-infused rats = conditions: 0.01 mg/kg, s.c., 14 days, cited from earlier work
[3] = test system: APPSwDI/NOS2−/− transgenic mouse; conditions: 0.4 mg/kg p.o. once-a-day, 9 months of age, RAWM
Procedure: We tested yet a further all-D-amino acid modified peptide for oral bioavailability and protection to memory losses in an animal AD model.
Both Transgenic (CVN) and wild-type (WT) mice were used: WT mice were treated orally (p.o.) with vehicle; while CVN mice treated p.o. with either vehicle or treated p.o. with RAP-310, 0.4 mg/kg. At the age of 4.5 to 5 months the mice were subjected to once-a-day oral vehicle or RAP-310. After 1 month of treatment, starting at the age of 6 months, the mice were subjected to radial arm water maze testing.

[4] = test system: cofilin-actin rods in hippocampal neurons
[5] = test system: rats with partial ligation of the sciatic nerve; conditions: cited from earlier work
[6] = Pharmacokinetic study of RAP-103 in male Sprague Dawley rat, LC-MS/MS; format: in vivo
Procedure: A pharmacokinetic study of all-D-TTNYT (SEQ ID NO:2) (RAP-103) following intravenous and oral administration was conducted at a target dose level of 1 mg/kg in the male Sprague Dawley rat. The concentration of RAP-103 in each plasma and brain sample was measured using a suitable LC-MS/MS assay. The assay used was a research grade assay (RGA-1) which was established by assessing the accuracy, precision and the linearity of the method. Plasma concentrations generated were used to evaluate the pharmacokinetic parameters of all-D-TTNYT (SEQ ID NO:2) (RAP-103).
The dose formulation was administered intravenously to some animals as a slow bolus over ca 30 s via the tail vein and to a different group of animals orally via gastric gavage at a target dose volume of 1 mL/kg, to achieve a target dose level of 1 mg/kg. The dose volume administered was calculated according to the bodyweight of the animal on the day of dosing. The weight of administered dose was recorded. […] Results of the study show oral boavailibity of the all-D-peptide was achieved, results are in Table 1

CCR2 = CCR2 (Homo sapiens, UniProt P41597); conditions: published, Padi 2012; cited from earlier work
CCR2, sequence (P41597 whole entry): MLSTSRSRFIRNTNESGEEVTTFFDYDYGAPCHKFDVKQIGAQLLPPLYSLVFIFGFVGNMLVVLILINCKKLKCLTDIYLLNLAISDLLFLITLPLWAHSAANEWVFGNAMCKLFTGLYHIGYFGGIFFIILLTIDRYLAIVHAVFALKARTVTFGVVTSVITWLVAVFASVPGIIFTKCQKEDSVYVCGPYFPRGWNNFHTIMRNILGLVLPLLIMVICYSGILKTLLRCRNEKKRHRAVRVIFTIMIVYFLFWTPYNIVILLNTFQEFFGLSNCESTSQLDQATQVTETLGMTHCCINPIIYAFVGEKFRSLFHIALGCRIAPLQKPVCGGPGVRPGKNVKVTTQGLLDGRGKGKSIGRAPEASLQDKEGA

Compound	potency to block CCL2 (MCP-1) chemotaxis [1]	potency to block CCL2 (MCP-1) chemotaxis ([1]; listed as RAP-101)	lesion-induced decreases in cortical thickness [2]	loss of large neurons in layer V [2]	inhibition of CCL1 (I-309) mediated chemotaxis / CCR8 function (CCR8)	number of activated microglia and astrocytes (LPS-infused rats; vs vehicle)	number of immunoreactive cells expressing NfKb (LPS-infused rats)	less errors in block 5 compared to CVN vehicle treated mice [3] [%]	less errors in sum scores for Day 1 compared to CVN vehicle treated mice [3] [%]	potency to block CCR8 compared with DAPTA (CCR8; FIG. 3)	EC50 [4] [pM]	block of TNFα caused cofilin-actin rod stress response [4]	already established hypersensitivity ([5]; 0.2-1 mg/kg, days 8 to 12)	development of thermal hyperalgesia ([5]; oral 0.05-1 mg/kg for 7 days)	mechanical allodynia ([5]; oral 0.05-1 mg/kg for 7 days)	spinal microglial activation and monocyte infiltration ([5]; peripheral nerve injury)	concentration in male rat plasma ([6]; intravenous, 1 mg/kg, nominal time 0.5 h, individual animals) [ng/mL]	time of peak plasma levels ([6]; rat, 1 mg/kg) [min]	detection in plasma ([6]; rat, 5 minutes (0.083 hrs) after dosing, continues at 1 hr)	activity to block MCP-1 human monocyte chemotaxis (CCR2)
D-ala1-STTTNYT-NH2 [DAPTA]	most potent	greater potency	prevented or attenuated	attenuated	Inhibit	dramatically reduced	reduced	–	–	–	–	–	–	–	–	–	–	–	–	–
C[C@H](O)[C@@H](NC(=O)[C@@H](Cc1ccc(O)cc1)NC(=O)[C@@H](CC(N)=O)NC(=O)[C@H](NC(=O)[C@H](NC(=O)[C@H](NC(=O)[C@@H](CO)NC(=O)[C@@H](C)N)[C@H](C)O)[C@H](C)O)[C@H](C)O)C(=O)O [RAP-310]	–	–	–	–	Inhibit	–	–	50	30	comparable potency	~0.1	comparably blocked	–	–	–	–	–	–	–	–
C[C@H](O)[C@@H](N)C(=O)N[C@@H](C(=O)N[C@H](CC(N)=O)C(=O)N[C@H](Cc1ccc(O)cc1)C(=O)N[C@@H](C(=O)O)[C@H](C)O)[C@H](C)O [RAP-103, All-D-TTNYT]	–	–	–	–	–	–	–	–	–	–	–	–	reverses	inhibits	fully prevents	reduce	561	10 to 15	detected	block
